Assay results reported in patent publication US20260193264A1, “BENZOYPARAZINE PYRAZINES AND THEIR USES” (FOGHORN THERAPEUTICS INC., priority 2022, published 2026).

How the values were obtained:
[1] = target: T1, HiBiT-BRM fusion protein in stable HeLa cell line (Homo sapiens, UniProt P51531); experiment: HiBiT-BRM cell-based degradation assay (Nano-Glo HiBiT Lytic Detection, 24 h); design: DC50: scale not given here; conditions: HeLa HiBiT-BRM cells; for DC50: read-out: BRM HiBit Degradation IC50; for BRM HiBit Degradation Maximum (%): top dose 30 μM
T1 construct: expressed in transfected cells
How it was run: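 Percent degradation was scaled between DMSO-treated cells and cells given 2 μM of a known BRM/BRG1 degrader. Readout was NanoBiT luminescence after lytic detection. HeLa cells stably expressing HiBiT-BRM were dosed for 24 h, 10 points, 3-fold steps from 30 μM final, in duplicate.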

[2] = target: T2, HiBit-BRG1 fusion protein in stable HeLa cell line expressing HiBit-BRG1 and LgBit (Homo sapiens, UniProt P51532); experiment: HiBiT-BRG1 cell-based degradation assay (Nano-Glo HiBiT, 24 h); conditions: HeLa HiBit-BRG1/LgBit cells; for Dmax: top dose 30 μM, read-out: BRG1 HiBit Degradation Maximum (%); for DC50: read-out: BRMG1 HiBit Degradation IC50
T2 construct: expressed in transfected cells
How it was run: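 Degradation calculated from NanoBiT luminescence relative to DMSO-treated cells (high) and cells given 2 μM known BRM/BRG1 degrader (low). HeLa cells stably expressing HiBiT-BRG1 plus LgBiT were exposed to compound for 24 h before lytic HiBiT detection.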

T1 sequence (P51531 whole entry, the tested form may be a part): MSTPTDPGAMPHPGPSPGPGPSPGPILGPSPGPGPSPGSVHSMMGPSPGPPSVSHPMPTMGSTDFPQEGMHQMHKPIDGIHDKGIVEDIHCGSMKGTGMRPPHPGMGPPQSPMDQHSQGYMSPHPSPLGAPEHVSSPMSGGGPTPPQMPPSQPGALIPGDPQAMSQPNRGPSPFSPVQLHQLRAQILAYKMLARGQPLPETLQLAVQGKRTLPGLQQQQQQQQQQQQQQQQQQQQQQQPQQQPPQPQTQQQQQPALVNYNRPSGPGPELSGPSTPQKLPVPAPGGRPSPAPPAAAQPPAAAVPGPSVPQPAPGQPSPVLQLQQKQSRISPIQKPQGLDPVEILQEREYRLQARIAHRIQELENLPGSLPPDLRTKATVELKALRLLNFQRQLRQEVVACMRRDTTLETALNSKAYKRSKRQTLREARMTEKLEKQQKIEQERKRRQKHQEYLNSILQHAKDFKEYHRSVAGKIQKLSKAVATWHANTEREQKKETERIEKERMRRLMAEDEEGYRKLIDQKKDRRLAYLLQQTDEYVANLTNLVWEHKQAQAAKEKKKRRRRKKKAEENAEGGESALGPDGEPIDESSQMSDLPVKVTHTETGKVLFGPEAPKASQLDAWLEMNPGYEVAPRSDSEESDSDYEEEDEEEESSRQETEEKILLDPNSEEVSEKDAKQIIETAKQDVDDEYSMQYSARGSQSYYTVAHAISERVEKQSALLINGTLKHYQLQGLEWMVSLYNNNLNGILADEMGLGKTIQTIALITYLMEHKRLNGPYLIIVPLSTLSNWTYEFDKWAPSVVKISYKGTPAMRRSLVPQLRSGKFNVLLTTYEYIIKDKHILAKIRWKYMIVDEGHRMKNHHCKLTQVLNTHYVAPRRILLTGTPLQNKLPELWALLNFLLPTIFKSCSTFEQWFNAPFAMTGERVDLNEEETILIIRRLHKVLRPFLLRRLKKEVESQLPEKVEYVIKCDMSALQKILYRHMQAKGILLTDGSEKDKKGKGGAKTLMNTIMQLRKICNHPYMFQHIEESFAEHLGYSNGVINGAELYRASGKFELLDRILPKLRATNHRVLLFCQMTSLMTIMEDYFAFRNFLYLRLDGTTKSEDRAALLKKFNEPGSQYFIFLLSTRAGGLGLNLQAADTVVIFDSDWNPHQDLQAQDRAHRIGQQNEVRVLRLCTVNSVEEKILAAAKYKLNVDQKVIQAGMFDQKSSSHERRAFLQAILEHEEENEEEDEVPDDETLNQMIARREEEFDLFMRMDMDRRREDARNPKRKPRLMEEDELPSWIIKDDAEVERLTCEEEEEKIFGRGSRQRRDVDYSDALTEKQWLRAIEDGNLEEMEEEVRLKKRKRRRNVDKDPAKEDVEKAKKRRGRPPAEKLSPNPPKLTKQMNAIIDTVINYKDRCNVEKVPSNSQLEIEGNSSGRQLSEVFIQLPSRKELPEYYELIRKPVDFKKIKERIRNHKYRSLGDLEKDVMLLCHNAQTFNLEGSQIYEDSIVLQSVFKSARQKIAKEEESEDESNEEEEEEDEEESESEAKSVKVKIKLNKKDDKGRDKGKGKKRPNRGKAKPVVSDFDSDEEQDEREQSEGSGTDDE
T2 sequence (P51532 whole entry, the tested form may be a part): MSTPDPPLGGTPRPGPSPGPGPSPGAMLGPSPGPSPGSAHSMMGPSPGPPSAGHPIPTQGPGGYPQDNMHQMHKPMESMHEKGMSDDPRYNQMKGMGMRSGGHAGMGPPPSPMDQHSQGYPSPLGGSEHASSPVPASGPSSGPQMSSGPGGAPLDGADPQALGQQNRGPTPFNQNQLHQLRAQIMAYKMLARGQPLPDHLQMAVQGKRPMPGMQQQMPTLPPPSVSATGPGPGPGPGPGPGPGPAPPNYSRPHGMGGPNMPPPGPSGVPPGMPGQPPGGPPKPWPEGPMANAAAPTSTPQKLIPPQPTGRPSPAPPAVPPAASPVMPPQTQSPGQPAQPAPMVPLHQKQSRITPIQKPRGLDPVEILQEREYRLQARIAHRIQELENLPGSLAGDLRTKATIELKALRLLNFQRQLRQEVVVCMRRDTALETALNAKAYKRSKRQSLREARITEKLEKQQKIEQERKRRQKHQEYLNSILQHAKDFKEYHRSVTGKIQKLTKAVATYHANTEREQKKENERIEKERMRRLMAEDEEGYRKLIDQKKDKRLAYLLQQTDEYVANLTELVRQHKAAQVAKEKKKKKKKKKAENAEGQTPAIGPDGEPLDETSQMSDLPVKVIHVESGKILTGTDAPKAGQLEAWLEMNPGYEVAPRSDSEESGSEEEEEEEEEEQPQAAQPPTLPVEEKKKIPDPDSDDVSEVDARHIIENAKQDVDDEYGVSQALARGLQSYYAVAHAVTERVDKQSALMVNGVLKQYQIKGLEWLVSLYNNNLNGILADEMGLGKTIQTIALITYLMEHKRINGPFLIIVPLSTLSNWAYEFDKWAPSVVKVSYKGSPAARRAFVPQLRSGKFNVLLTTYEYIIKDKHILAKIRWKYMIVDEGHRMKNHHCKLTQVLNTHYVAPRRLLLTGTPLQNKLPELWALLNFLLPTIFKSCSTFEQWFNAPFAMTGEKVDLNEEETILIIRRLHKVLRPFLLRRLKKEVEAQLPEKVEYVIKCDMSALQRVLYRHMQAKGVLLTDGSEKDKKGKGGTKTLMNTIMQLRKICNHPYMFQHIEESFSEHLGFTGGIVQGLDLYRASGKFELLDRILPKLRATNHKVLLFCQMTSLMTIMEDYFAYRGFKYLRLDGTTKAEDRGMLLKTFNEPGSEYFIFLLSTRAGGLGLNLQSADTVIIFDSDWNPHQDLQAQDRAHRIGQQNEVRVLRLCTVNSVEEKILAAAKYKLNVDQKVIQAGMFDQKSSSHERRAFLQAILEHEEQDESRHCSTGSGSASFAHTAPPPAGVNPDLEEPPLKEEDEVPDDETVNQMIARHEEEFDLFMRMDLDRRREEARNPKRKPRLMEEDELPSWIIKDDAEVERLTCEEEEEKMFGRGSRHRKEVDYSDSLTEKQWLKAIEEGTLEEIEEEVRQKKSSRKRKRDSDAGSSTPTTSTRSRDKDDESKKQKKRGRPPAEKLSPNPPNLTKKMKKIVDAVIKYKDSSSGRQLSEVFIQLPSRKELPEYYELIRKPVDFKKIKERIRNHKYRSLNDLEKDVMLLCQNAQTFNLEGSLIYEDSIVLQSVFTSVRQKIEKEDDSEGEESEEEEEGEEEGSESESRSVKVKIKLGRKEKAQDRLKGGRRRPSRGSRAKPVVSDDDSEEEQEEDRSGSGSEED

DC50 [1]	Dmax [2]	DC50 [2]	Structure (SMILES)	BRM HiBit Degradation Maximum (%) [1]
< 10 nM	< 50%		C#Cc1ccc([C@H](C)NC(=O)[C@@H]2C[C@@H](O)CN2C(=O)[C@@H](c2cc(N3CC4(CN(c5ccc6cc(-c7ccccc7O)nnc6c5)C4)C3)no2)C(C)C)c(OC)c1 [Compound 273, (2S,4R)-N-((S)-1-(4-ethynyl-2-methoxyphenyl)ethyl)-4-hydroxy-1-((R)-2-(3-(6-(3-(2-hydroxyphenyl)cinnolin-7-yl)-2,6-diazaspiro[3.3]heptan-2-yl)isoxazol-5-yl)-3-methylbutanoyl)pyrrolidine-2-carboxamide]	A (“A” indicates maximum degradation ≥75%)
< 10 nM	< 50%		C#Cc1ccc([C@H](C)NC(=O)[C@@H]2C[C@@H](O)CN2C(=O)[C@@H](c2cc(N3CC4(CN(c5ccc6cc(-c7ccccc7O)nnc6c5)C4)C3)no2)C(C)C)cc1 [Compound 274, (2S,4R)-N-((S)-1-(4-ethynylphenyl)ethyl)-4-hydroxy-1-((R)-2-(3-(6-(3-(2-hydroxyphenyl)cinnolin-7-yl)-2,6-diazaspiro[3.3]heptan-2-yl)isoxazol-5-yl)-3-methylbutanoyl)pyrrolidine-2-carboxamide]	A (“A” indicates maximum degradation ≥75%)
< 10 nM	> 75%	> 10 nM	Cc1ncsc1-c1ccc([C@H](C)NC(=O)[C@@H]2C[C@@H](O)CN2C(=O)C(C(C)C)n2cc(N3CCCC4(CCN(c5ccc6nnc(-c7ccccc7O)cc6c5)CC4)C3)nn2)cc1 (stereo partly shown) [Compound 275]	A (“A” indicates maximum degradation ≥75%)
	> 75%	> 10 nM	Cc1ncsc1-c1ccc([C@H](C)NC(=O)[C@@H]2C[C@@H](O)CN2C(=O)C(C(C)C)n2cc(N3CCC34CN(c3ccc5nnc(-c6ccccc6O)cc5c3)C4)nn2)cc1 (stereo partly shown) [Compound 276]	C (“C” indicates maximum degradation <50%)
< 10 nM	< 50%		Cc1ncsc1-c1ccc([C@H](C)NC(=O)[C@@H]2C[C@@H](O)CN2C(=O)C(C(C)C)n2cc(N3CCC4(CCN4c4ccc5nnc(-c6ccccc6O)cc5c4)C3)nn2)cc1 (stereo partly shown) [Compound 277]	A (“A” indicates maximum degradation ≥75%)
< 10 nM	> 50%	> 10 nM	Cc1ncsc1-c1ccc([C@H](C)NC(=O)[C@@H]2C[C@@H](O)CN2C(=O)C(C(C)C)n2cc(N3CCC4(CC3)CCN4c3ccc4nnc(-c5ccccc5O)cc4c3)nn2)cc1 (stereo partly shown) [Compound 278]	A (“A” indicates maximum degradation ≥75%)
< 10 nM	> 75%	> 10 nM	Cc1ncsc1-c1ccc([C@H](C)NC(=O)[C@@H]2C[C@@H](O)CN2C(=O)C(C(C)C)n2cc(N3CCC4(CCN(c5ccc6nnc(-c7ccccc7O)cc6c5)CC4)C3)nn2)cc1 (stereo partly shown) [Compound 279]	A (“A” indicates maximum degradation ≥75%)
< 10 nM	> 75%	< 10 nM	Cc1ncsc1-c1ccc([C@H](C)NC(=O)[C@@H]2C[C@@H](O)CN2C(=O)C(C(C)C)n2cc(N3CCN(CC4CCCN(c5ccc6nnc(-c7ccccc7O)cc6c5)C4)CC3)nn2)cc1 (stereo partly shown) [Compound 280]	A (“A” indicates maximum degradation ≥75%)
< 10 nM	> 75%	< 10 nM	Cc1ncsc1-c1ccc([C@H](C)NC(=O)[C@@H]2C[C@@H](O)CN2C(=O)C(C(C)C)n2cc(N3CCN(CC4CCN(c5ccc6nnc(-c7ccccc7O)cc6c5)CC4)CC3)nn2)cc1 (stereo partly shown) [Compound 281]	A (“A” indicates maximum degradation ≥75%)
< 10 nM	> 75%	< 10 nM	Cc1ncsc1-c1ccc([C@H](C)NC(=O)[C@@H]2C[C@@H](O)CN2C(=O)C(C(C)C)n2cc(N3CCN(CN4CCN(c5ccc6nnc(-c7ccccc7O)cc6c5)CC4)CC3)nn2)cc1 (stereo partly shown) [Compound 282]	A (“A” indicates maximum degradation ≥75%)
< 10 nM	< 50%		CC(C)[C@@H](C(=O)N1C[C@H](O)C[C@H]1C(=O)N[C@@H](C)c1ccc(F)cc1)c1cc(N2CC3(CC(c4cc5nnc(-c6ccccc6O)cc5cc4C(F)F)C3)C2)no1 [Compound 283]	A (“A” indicates maximum degradation ≥75%)
< 10 nM	< 50%		C#Cc1ccc([C@H](C)NC(=O)[C@@H]2C[C@@H](O)CN2C(=O)[C@@H](c2cc(N3CC4(CN(c5ccc6cc(-c7ccccc7O)nnc6c5)C4)C3)no2)C(C)C)c(Cl)c1 [Compound 284]	A (“A” indicates maximum degradation ≥75%)

Structure (SMILES)	DC50 [1]	Dmax [2]	DC50 [2]	BRM HiBit Degradation Maximum (%) [1]
Cc1ncsc1-c1ccc([C@H](C)NC(=O)[C@@H]2C[C@@H](O)CN2C(=O)C(C(C)C)n2cc(N3C4CCC3CN(c3ccc5nnc(-c6ccccc6O)cc5c3)C4)nn2)cc1 (stereo partly shown) [Compound 285]	< 10 nM	> 75%	> 10 nM	A (“A” indicates maximum degradation ≥75%)
